The text below walks through data of ChEMBL document CHEMBL6074639, “MALT1 Inhibitors for Treating Cancer and Immunological Diseases” (ACS Med Chem Lett, 2024).

SMILES strings stand for the structures.

The test has as its target T1, Mucosa-associated lymphoid tissue lymphoma translocation protein 1 (Homo sapiens, UniProt Q9UDY8).
T1 sequence (Q9UDY8 whole entry): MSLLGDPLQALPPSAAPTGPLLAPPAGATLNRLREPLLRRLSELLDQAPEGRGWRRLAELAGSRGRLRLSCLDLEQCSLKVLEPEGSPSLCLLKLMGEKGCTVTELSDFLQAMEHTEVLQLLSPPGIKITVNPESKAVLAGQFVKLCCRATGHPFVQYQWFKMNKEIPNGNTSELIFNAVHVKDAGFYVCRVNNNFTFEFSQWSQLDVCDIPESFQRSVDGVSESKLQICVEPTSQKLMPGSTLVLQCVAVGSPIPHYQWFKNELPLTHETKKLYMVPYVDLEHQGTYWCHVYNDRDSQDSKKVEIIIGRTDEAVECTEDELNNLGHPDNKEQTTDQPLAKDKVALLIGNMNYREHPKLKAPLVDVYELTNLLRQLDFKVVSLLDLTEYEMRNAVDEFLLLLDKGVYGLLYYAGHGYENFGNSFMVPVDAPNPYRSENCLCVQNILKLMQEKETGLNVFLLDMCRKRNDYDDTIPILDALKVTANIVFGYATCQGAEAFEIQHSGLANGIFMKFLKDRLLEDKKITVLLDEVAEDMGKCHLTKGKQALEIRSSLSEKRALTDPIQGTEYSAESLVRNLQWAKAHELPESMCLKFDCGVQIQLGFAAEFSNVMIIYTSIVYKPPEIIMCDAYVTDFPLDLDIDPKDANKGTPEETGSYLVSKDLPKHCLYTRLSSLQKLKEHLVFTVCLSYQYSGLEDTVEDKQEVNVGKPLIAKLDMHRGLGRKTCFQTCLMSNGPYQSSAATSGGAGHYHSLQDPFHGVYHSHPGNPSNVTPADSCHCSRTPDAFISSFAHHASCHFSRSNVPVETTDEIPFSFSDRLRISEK
As to the kind of experiment: Inhibition of full length his-tagged MALT1 (1 to 824 residues) (unknown origin) expressed in Baculovirus infected in insect cells using tetrapeptide-[…]-AMC as fluorescent substrate preincubated for 50 mins followed by substrate addition and measured after 4 hrs by fluorescence based analysis.
As for `C[C@@]1(C(F)(F)F)CN(c2ccc([C@H]3C(F)(F)[C@]3(C)C(=O)N[C@H]3C[C@@H](C[S+](C)(=N)[O-])C3)cc2)c2cnc3cc(Cl)nn3c21` (stereo partly specified), it took 6 nM to reach half-maximal inhibition (IC50). This lies in the single-digit nanomolar range. `C[C@@]1(C(F)(F)F)CN(c2ccc([C@H]3C(F)(F)[C@]3(C)C(=O)NCCS(N)(=O)=O)cc2)c2cnc3cc(Cl)nn3c21`: the IC50 (usually the concentration that gives 50% inhibition) is 6 nM. This counts as single-digit nanomolar. The value for `C[C@@]1(C(F)(F)F)CN(c2ccc([C@H]3C(F)(F)[C@]3(C)C(=O)NCC(N)=O)cc2)c2cnc3cc(Cl)nn3c21` was 5 nM; that for `C[C@@]1(C(F)(F)F)CN(c2ccc([C@H]3C(F)(F)[C@]3(CO)C(N)=O)cc2)c2cnc3cc(Cl)nn3c21` was 5 nM; that for `CC(C)(C)NC(=O)[C@]1(C)[C@@H](c2ccc(N3C[C@@](C)(C(F)(F)F)c4c3cnc3cc(Cl)nn43)cc2)C1(F)F` was 6 nM. Turning to `C[C@@]1(C(F)(F)F)CN(c2ccc([C@H]3C(F)(F)[C@]3(C)C(=O)NCC3CNC(=O)C3)cc2)c2cnc3cc(Cl)nn3c21` (stereo partly specified), the IC50 came out at 6 nM.
